Data reported in paper PMC3973950, “Synthesis of 5-arylidine amino-1,3,4-thiadiazol-2-[(N-substituted benzyol)]sulphonamides endowed with potent antioxidants and anticancer activity induces growth inhibition in HEK293, BT474 and NCI-H226 cells” (Medicinal Chemistry Research, 2013).

Tested on: BT474 (breast cancer cell line)
Assay: In vitro cytotoxicity by MTT assay, BT474
Assay type: cell-based
Settings: Homo sapiens, BT-474, 0.005 μM, 72 h, read-out: % cytotoxicity (100 − % cell survival) of BT474 cell line
Description: (§1) The cancer cell line cultures of HEK 293 ([…]), BT474 (breast cancer cell line) and NCI-H226 (lung cancer) were obtained from Pasteur Institute of India, Coonoor, India, and were cultured in RPMI-1640 and 10 % heat-[…] New born calf serum with antibiotics [penicillin ([…]), streptomycin (100 μg/mL) and amphotericin B (25 μg/mL)]. The cells were maintained at 37 °C in a humidified atmosphere with 5 % CO2 and were subcultured twice a week.
(§2) The monolayer cell culture (100 μL) was trypsinized, and the cell count was adjusted to […] using medium containing 10 % new born calf serum. To each well of the 96-well microtitre plate, the diluted cell suspension (approximately 10,000 cells) (0.1 mL) was added and kept for 24 h in incubator at 37 °C in 5 % CO2 atmosphere for cell monolayer formation. After 24 h, when a partial monolayer was formed at the bottom of the well, the supernatant was flicked off, the monolayer was washed once, and different drugs, i.e. synthesized compounds (100 μL), were added to the cells in microtitre plates. The plates were then incubated at 37 °C for 3 days in 5 % CO2 atmosphere, and microscopic examination was carried out and observations recorded every 24 h. After 72 h, the sample solution in the wells was flicked off; MTT dye ([…]) was added to each well; plates were gently shaken and incubated for 4 h at 37 °C in 5 % CO2 incubator. The supernatant was removed and propanol (50 μL) was added; the plates were gently shaken to solubilize the formed formazan. The absorbance was measured using a microplate reader at a wavelength of 490 nm (Edmondson et al., [1988]; Prasad et al., [2005]; Chiruvella et al., [2008]; Chang et al., [2007]).

| SMILES | cytotoxicity at 0.005 µM [%] |
| --- | --- |
| Nc1ccc(C(=O)NS(=O)(=O)c2nnc(NS(=O)(=O)c3ccc(N)cc3)s2)cc1 [Compound 7c] | 18.8 |

Same assay, conditions: Homo sapiens, BT-474, 0.015 μM, 72 h, read-out: % cytotoxicity (100 − % cell survival) of BT474 cell line

| SMILES | cytotoxicity at 0.015 µM [%] |
| --- | --- |
| Nc1ccc(C(=O)NS(=O)(=O)c2nnc(NS(=O)(=O)c3ccc(N)cc3)s2)cc1 [Compound 7c] | 19.4 |

Same assay, conditions: Homo sapiens, BT-474, 0.045 μM, 72 h, read-out: % cytotoxicity (100 − % cell survival) of BT474 cell line

| SMILES | cytotoxicity at 0.045 µM [%] |
| --- | --- |
| Nc1ccc(C(=O)NS(=O)(=O)c2nnc(NS(=O)(=O)c3ccc(N)cc3)s2)cc1 [Compound 7c] | 19.8 |

Same assay, conditions: Homo sapiens, BT-474, 0.13 μM, 72 h, read-out: % cytotoxicity (100 − % cell survival) of BT474 cell line

| SMILES | cytotoxicity at 0.13 µM [%] |
| --- | --- |
| Nc1ccc(C(=O)NS(=O)(=O)c2nnc(NS(=O)(=O)c3ccc(N)cc3)s2)cc1 [Compound 7c] | 20.1 |

Same assay, conditions: Homo sapiens, BT-474, 0.41 μM, 72 h, read-out: % cytotoxicity (100 − % cell survival) of BT474 cell line

| SMILES | cytotoxicity at 0.41 µM [%] |
| --- | --- |
| Nc1ccc(C(=O)NS(=O)(=O)c2nnc(NS(=O)(=O)c3ccc(N)cc3)s2)cc1 [Compound 7c] | 21 |

Same assay, conditions: Homo sapiens, BT-474, 1.23 μM, 72 h, read-out: % cytotoxicity (100 − % cell survival) of BT474 cell line

| SMILES | cytotoxicity at 1.23 µM [%] |
| --- | --- |
| Nc1ccc(C(=O)NS(=O)(=O)c2nnc(NS(=O)(=O)c3ccc(N)cc3)s2)cc1 [Compound 7c] | 22.8 |

Same assay, conditions: Homo sapiens, BT-474, 3.7 μM, 72 h, read-out: % cytotoxicity (100 − % cell survival) of BT474 cell line

| SMILES | cytotoxicity at 3.7 µM [%] |
| --- | --- |
| Nc1ccc(C(=O)NS(=O)(=O)c2nnc(NS(=O)(=O)c3ccc(N)cc3)s2)cc1 [Compound 7c] | 24.2 |

Same assay, conditions: Homo sapiens, BT-474, 11.11 μM, 72 h, read-out: % cytotoxicity (100 − % cell survival) of BT474 cell line

| SMILES | cytotoxicity at 11.11 µM [%] |
| --- | --- |
| Nc1ccc(C(=O)NS(=O)(=O)c2nnc(NS(=O)(=O)c3ccc(N)cc3)s2)cc1 [Compound 7c] | 25.7 |

Same assay, conditions: Homo sapiens, BT-474, 33.33 μM, 72 h, read-out: % cytotoxicity (100 − % cell survival) of BT474 cell line

| SMILES | cytotoxicity at 33.33 µM [%] |
| --- | --- |
| Nc1ccc(C(=O)NS(=O)(=O)c2nnc(NS(=O)(=O)c3ccc(N)cc3)s2)cc1 [Compound 7c] | 26.4 |

Same assay, conditions: Homo sapiens, BT-474, 100 μM, 72 h, read-out: % cytotoxicity (100 − % cell survival) of BT474 cell line

| SMILES | cytotoxicity at 100 µM [%] |
| --- | --- |
| Nc1ccc(C(=O)NS(=O)(=O)c2nnc(NS(=O)(=O)c3ccc(N)cc3)s2)cc1 [Compound 7c] | 27.9 |

Tested on: NCI-H226 (lung cancer cell line)
Assay: In vitro cytotoxicity by MTT assay, NCI-H226
Assay type: cell-based
Settings: Homo sapiens, NCI-H226, 0.005 μM, 72 h, read-out: % Cytotoxicity (100 − % cell survival) of NCI-H226 cell line
Description: as §1, §2

| SMILES | cytotoxicity at 0.005 µM [%] |
| --- | --- |
| Nc1ccc(C(=O)NS(=O)(=O)c2nnc(NS(=O)(=O)c3ccc(N)cc3)s2)cc1 [Compound 7c] | 33.2 |

Same assay, conditions: Homo sapiens, NCI-H226, 0.045 μM, 72 h, read-out: % Cytotoxicity (100 − % cell survival) of NCI-H226 cell line

| SMILES | cytotoxicity at 0.045 µM [%] |
| --- | --- |
| Nc1ccc(C(=O)NS(=O)(=O)c2nnc(NS(=O)(=O)c3ccc(N)cc3)s2)cc1 [Compound 7c] | 34.8 |

Same assay, conditions: Homo sapiens, NCI-H226, 0.13 μM, 72 h, read-out: % Cytotoxicity (100 − % cell survival) of NCI-H226 cell line

| SMILES | cytotoxicity at 0.13 µM [%] |
| --- | --- |
| Nc1ccc(C(=O)NS(=O)(=O)c2nnc(NS(=O)(=O)c3ccc(N)cc3)s2)cc1 [Compound 7c] | 36.6 |

Same assay, conditions: Homo sapiens, NCI-H226, 0.41 μM, 72 h, read-out: % Cytotoxicity (100 − % cell survival) of NCI-H226 cell line

| SMILES | cytotoxicity at 0.41 µM [%] |
| --- | --- |
| Nc1ccc(C(=O)NS(=O)(=O)c2nnc(NS(=O)(=O)c3ccc(N)cc3)s2)cc1 [Compound 7c] | 37.8 |

Same assay, conditions: Homo sapiens, NCI-H226, 1.23 μM, 72 h, read-out: % Cytotoxicity (100 − % cell survival) of NCI-H226 cell line

| SMILES | cytotoxicity at 1.23 µM [%] |
| --- | --- |
| Nc1ccc(C(=O)NS(=O)(=O)c2nnc(NS(=O)(=O)c3ccc(N)cc3)s2)cc1 [Compound 7c] | 38 |

Same assay, conditions: Homo sapiens, NCI-H226, 3.7 μM, 72 h, read-out: % Cytotoxicity (100 − % cell survival) of NCI-H226 cell line

| SMILES | cytotoxicity at 3.7 µM [%] |
| --- | --- |
| Nc1ccc(C(=O)NS(=O)(=O)c2nnc(NS(=O)(=O)c3ccc(N)cc3)s2)cc1 [Compound 7c] | 38.2 |

Same assay, conditions: Homo sapiens, NCI-H226, 11.11 μM, 72 h, read-out: % Cytotoxicity (100 − % cell survival) of NCI-H226 cell line

| SMILES | cytotoxicity at 11.11 µM [%] |
| --- | --- |
| Nc1ccc(C(=O)NS(=O)(=O)c2nnc(NS(=O)(=O)c3ccc(N)cc3)s2)cc1 [Compound 7c] | 38.6 |

Same assay, conditions: Homo sapiens, NCI-H226, 33.33 μM, 72 h, read-out: % Cytotoxicity (100 − % cell survival) of NCI-H226 cell line

| SMILES | cytotoxicity at 33.33 µM [%] |
| --- | --- |
| Nc1ccc(C(=O)NS(=O)(=O)c2nnc(NS(=O)(=O)c3ccc(N)cc3)s2)cc1 [Compound 7c] | 38.9 |

Same assay, conditions: Homo sapiens, NCI-H226, 100 μM, 72 h, read-out: % Cytotoxicity (100 − % cell survival) of NCI-H226 cell line

| SMILES | cytotoxicity at 100 µM [%] |
| --- | --- |
| Nc1ccc(C(=O)NS(=O)(=O)c2nnc(NS(=O)(=O)c3ccc(N)cc3)s2)cc1 [Compound 7c] | 40.3 |

Tested on: not listed separately
Assay: In vitro cytotoxicity by MTT assay, NCI-H226
Assay type: cell-based
Settings: human, NCI-H226 lung cancer cells, 0.015 μM, read-out: % Cytotoxicity (100 − % cell survival) of NCI-H226 cell line
Description: as §1, §2

| SMILES | cytotoxicity at 72 h, 0.015 µM [%] |
| --- | --- |
| Nc1ccc(C(=O)NS(=O)(=O)c2nnc(NS(=O)(=O)c3ccc(N)cc3)s2)cc1 [Compound 7c] | 34 |

Tested on: not listed separately
Assay: In vitro cytotoxicity by MTT assay, HEK 293
Assay type: cell-based, human
Settings: human, HEK 293 cells, 0.005 μM, read-out: % cytotoxicity (100 − % cell survival) of HEK 293 cell line
Description: as §1, §2

| SMILES | cytotoxicity at 72 h, 0.005 µM [%] |
| --- | --- |
| Nc1ccc(C(=O)NS(=O)(=O)c2nnc(NS(=O)(=O)c3ccc(N)cc3)s2)cc1 [Compound 7c] | 36.5 |

Same assay, conditions: human, HEK 293 cells, 0.015 μM, read-out: % cytotoxicity (100 − % cell survival) of HEK 293 cell line

| SMILES | cytotoxicity at 72 h, 0.015 µM [%] |
| --- | --- |
| Nc1ccc(C(=O)NS(=O)(=O)c2nnc(NS(=O)(=O)c3ccc(N)cc3)s2)cc1 [Compound 7c] | 38.2 |

Same assay, conditions: human, HEK 293 cells, 0.045 μM, read-out: % cytotoxicity (100 − % cell survival) of HEK 293 cell line

| SMILES | cytotoxicity at 72 h, 0.045 µM [%] |
| --- | --- |
| Nc1ccc(C(=O)NS(=O)(=O)c2nnc(NS(=O)(=O)c3ccc(N)cc3)s2)cc1 [Compound 7c] | 40.6 |

Same assay, conditions: human, HEK 293 cells, 0.13 μM, read-out: % cytotoxicity (100 − % cell survival) of HEK 293 cell line

| SMILES | cytotoxicity at 72 h, 0.13 µM [%] |
| --- | --- |
| Nc1ccc(C(=O)NS(=O)(=O)c2nnc(NS(=O)(=O)c3ccc(N)cc3)s2)cc1 [Compound 7c] | 42.7 |

Same assay, conditions: human, HEK 293 cells, 0.41 μM, read-out: % cytotoxicity (100 − % cell survival) of HEK 293 cell line

| SMILES | cytotoxicity at 72 h, 0.41 µM [%] |
| --- | --- |
| Nc1ccc(C(=O)NS(=O)(=O)c2nnc(NS(=O)(=O)c3ccc(N)cc3)s2)cc1 [Compound 7c] | 43.4 |

Same assay, conditions: human, HEK 293 cells, 1.23 μM, read-out: % cytotoxicity (100 − % cell survival) of HEK 293 cell line

| SMILES | cytotoxicity at 72 h, 1.23 µM [%] |
| --- | --- |
| Nc1ccc(C(=O)NS(=O)(=O)c2nnc(NS(=O)(=O)c3ccc(N)cc3)s2)cc1 [Compound 7c] | 45.3 |

Same assay, conditions: human, HEK 293 cells, 3.7 μM, read-out: % cytotoxicity (100 − % cell survival) of HEK 293 cell line

| SMILES | cytotoxicity at 72 h, 3.7 µM [%] |
| --- | --- |
| Nc1ccc(C(=O)NS(=O)(=O)c2nnc(NS(=O)(=O)c3ccc(N)cc3)s2)cc1 [Compound 7c] | 47.1 |

Same assay, conditions: human, HEK 293 cells, 11.11 μM, read-out: % cytotoxicity (100 − % cell survival) of HEK 293 cell line

| SMILES | cytotoxicity at 72 h, 11.11 µM [%] |
| --- | --- |
| Nc1ccc(C(=O)NS(=O)(=O)c2nnc(NS(=O)(=O)c3ccc(N)cc3)s2)cc1 [Compound 7c] | 49.1 |

Same assay, conditions: human, HEK 293 cells, 33.33 μM, read-out: % cytotoxicity (100 − % cell survival) of HEK 293 cell line

| SMILES | cytotoxicity at 72 h, 33.33 µM [%] |
| --- | --- |
| Nc1ccc(C(=O)NS(=O)(=O)c2nnc(NS(=O)(=O)c3ccc(N)cc3)s2)cc1 [Compound 7c] | 49.2 |

Same assay, conditions: human, HEK 293 cells, 100 μM, read-out: % cytotoxicity (100 − % cell survival) of HEK 293 cell line

| SMILES | cytotoxicity at 72 h, 100 µM [%] |
| --- | --- |
| Nc1ccc(C(=O)NS(=O)(=O)c2nnc(NS(=O)(=O)c3ccc(N)cc3)s2)cc1 [Compound 7c] | 49.9 |
